In patent US20250346573A1, “AZAQUINOLINONE DERIVATIVE, PREPARATION METHOD THEREFOR AND USE THEREOF” (CHENGDU EASTON BIOPHARMACEUTICALS CO., LTD., priority 2022, published 2025) one finds IC50 data, which are given here for twelve molecules.

As usually defined, the IC50 is the concentration that gives 50% inhibition.

In the assay the test system is BRCA1-mutated MDA-MB-436 cells. The assay can be described thus: Proliferation inhibitory test of BRCA1-mutated MDA-MB-436 cells (CCK-8). The class given is cell-based. The following applies: Homo sapiens, 120 h, 5 days, read-out: IC50 (nM), inhibitory activity against BRCA1-mutated MDA-MB-436 cells. Here is the method:
CCK-8 was used to measure the content of mitochondrial dehydrogenase in cells at different drug concentrations, and the luminescence intensity was used to reflect the cell activity. The IC50 values of different compounds on BRCA1-mutated MDA-MB-436 cells were calculated using the survival rate, and the proliferation inhibitory effect of the compounds of the present disclosure on BRCA1-mutated MDA-MB-436 cells was studied to evaluate the anti-tumor efficacy of the test compounds at the cellular level.
On Day −1, the cells were inoculated into the 96-well cell culture plate at a fixed cell density and then placed in the 5% CO2 cell incubator for culture overnight at 37° C.
On Day 0, the compound to be tested was prepared into a 10 mM stock solution and diluted into 9 concentration points at the concentration of 1,000 nM, 300 nM, 100 nM, 30 nM, 10 nM, 3 nM, 1 nM, 0.3 nM and 0.1 nM in two duplicated wells. A fixed volume of the diluted compound was added to the 96-well cell culture plate and then placed in the 5% CO2 cell incubator for culture at 37° C. for 5 days.
On Day 5, a fixed volume of CCK-8 was added to the 96-well cell culture plate and incubated in the 5% CO2 cell incubator at 37° C. for 1.5 h, and the plate was read by a chemiluminescence module of the multifunctional microplate reader.
With the logarithmic value of the concentration as an X axis and the survival percentage as a Y axis, a dose-effect curve was fitted by using a log(inhibitor) vs. response-Variable slop (Four parameters) formula of the analysis software Graphpad Prism 9, thereby obtaining the IC50 value of the anti-proliferation inhibitory activity of each compound against BRCA1-mutated MDA-MB-436 cells.
For the molecule `CNC(=O)c1ccc(N2CCN(Cc3cc(F)c4nc(C)c(=O)[nH]c4c3)CC2)c(Cl)n1` [Compound 7, 6-chloro-5-(4-((8-fluoro-2-methyl-3-oxo-3,4-dihydroquinoxalin-6-yl)methyl)piperazin-1-yl)-N-methylpicolinamide], the IC50 came to 2.31 nM. The value for `CNC(=O)c1ccc(N2CCN(Cc3cc4[nH]c(=O)c(C)nc4c(F)c3F)CC2)cn1` [Compound 8, 5-(4-((7,8-difluoro-2-methyl-3-oxo-3,4-dihydroquinoxalin-6-yl)methyl)piperazin-1-yl)-N-methylpicolinamide] was 11.1 nM; that for `CNC(=O)c1ccc(N2CCN(Cc3cc(C)c4nc(C)c(=O)[nH]c4c3)CC2)c(C)n1` [Compound 10, 5-(4-((2,8-dimethyl-3-oxo-3,4-dihydroquinoxalin-6-yl)methyl)piperazin-1-yl)-N,6-dimethylpicolinamide] was 3.63 nM; that for `Cc1nc2c(C)cc(CN3CCN(c4ccc(C#N)c(F)c4)CC3)cc2[nH]c1=O` [Compound 19, 4-(4-((2,8-dimethyl-3-oxo-3,4-dihydroquinoxalin-6-yl)methyl)piperazin-1-yl)-2-fluorobenzonitrile] was 8.31 nM. As to `COCCNC(=O)c1ccc(N2CCN(Cc3cc(C)c4nc(C)c(=O)[nH]c4c3)CC2)c(C)n1` [Compound 22, 5-(4-((2,8-dimethyl-3-oxo-3,4-dihydroquinoxalin-6-yl)methyl)piperazin-1-yl)-N-(2-methoxyethyl)-6-methylpicolinamide], the IC50 was determined as 6.95 nM. The value for `Cc1nc(C(=O)NCCF)ccc1N1CCN(Cc2cc(F)c3nc(C)c(=O)[nH]c3c2)CC1` [Compound 29, 5-(4-((8-fluoro-2-methyl-3-oxo-3,4-dihydroquinoxalin-6-yl)methyl)piperazin-1-yl)-N-(2-fluoroethyl)-6-methylpicolinamide] was 9.83 nM.

In the case of `CCc1nc2c(F)cc(CN3CCN(c4ccc(C(=O)NCCF)nc4C)CC3)cc2[nH]c1=O` [Compound 30, 5-(4-((2-ethyl-8-fluoro-3-oxo-3,4-dihydroquinoxalin-6-yl)methyl)piperazin-1-yl)-N-(2-fluoroethyl)-6-methylpicolinamide], the IC50 amounted to 5.94 nM.

For the molecule `CCc1nc2c(F)cc(CN3CCN(c4ccc(C(=O)NCCO)nc4C)CC3)cc2[nH]c1=O` [Compound 31, 5-(4-((2-ethyl-8-fluoro-3-oxo-3,4-dihydroquinoxalin-6-yl)methyl)piperazin-1-yl)-N-(2-hydroxyethyl)-6-methylpicolinamide], the IC50 worked out at 8.77 nM. On to `CCc1nc2c(F)cc(CN3CCN(c4ccc(C(=O)NCC5COC5)nc4C)CC3)cc2[nH]c1=O` [Compound 33, 5-(4-((2-ethyl-8-fluoro-3-oxo-3,4-dihydroquinoxalin-6-yl)methyl)piperazin-1-yl)-6-methyl-N-(oxetan-3-ylmethyl)picolinamide], for which the IC50 was 6.91 nM. On to `CNC(=O)c1ccc(N2CCN(Cc3cc4[nH]c(=O)c(C)nc4cc3OC)CC2)c(C)n1` [Compound 41, 5-(4-((7-methoxy-2-methyl-3-oxo-3,4-dihydroquinoxalin-6-yl)methyl)piperazin-1-yl)-N,6-dimethylpicolinamide], for which the IC50 amounted to 6.49 nM. Consider `CCc1nc2c(F)cc(CN3CCN(c4ccc(C(=O)NC5COC5)nc4C)CC3)cc2[nH]c1=O` [Compound 42, 5-(4-((2-ethyl-8-fluoro-3-oxo-3,4-dihydroquinoxalin-6-yl)methyl)piperazin-1-yl)-6-methyl-N-(oxetan-3-yl)picolinamide], for which the IC50 is 4.02 nM. For `Cc1nc(C(=O)N[C@@H]2CCOC2)ccc1N1CCN(Cc2cc(F)c3nc(C)c(=O)[nH]c3c2)CC1` [Compound 46, (R)-5-(4-((8-fluoro-2-methyl-3-oxo-3,4-dihydroquinoxalin-6-yl)methyl)piperazin-1-yl)-6-methyl-N-(tetrahydrofuran-3-yl)picolinamide], the IC50 amounted to 8.38 nM.
